Measured values reported in patent US20260159511A1, “SMALL MOLECULE STING ANTAGONISTS” (CURADEV PHARMA PVT. LTD., priority 2021, published 2026).

Test system: IRF pathway in THP1-Dual™ cells, THP-1 (HAQ)
Assay: Reporter gene expression assay in THP-1 cells (THP1-Dual, IRF pathway Lucia luciferase reporter, 2′,3′-cGAMP stimulation)
Assay type: cell-based, human
Conditions: Homo sapiens; THP1-Dual cells preincubated with compound 10 minutes, stimulation with 5 μM 2′,3′-cGAMP for 20 hr, QUANTI-Luc readout of the supernatant; read-out: THP-1 (HAQ) Activity (IC50 value range)
In short: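 THP-1-derived THP1-Dual cells (5×10^4) preincubated with compound for 10 minutes, then stimulated with 5 μM 2′,3′-cGAMP. After 20 hr, secreted Lucia luciferase (IRF pathway reporter) measured in supernatant by luminescence.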

With `O=C(Nc1ccc2c(c1)N(Cc1cc(F)cc(Cl)c1)CCS2)Nc1c[nH]c2ccc(F)cc12` [Example 101, 1-(4-(3-chloro-5-fluorobenzyl)-3,4-dihydro-2H-benzo[b][1,4]thiazin-6-yl)-3-(5-fluoro-1H-indol-3-yl)urea] the IC50 was < 1 µM.

`Cc1nc(N2CCSc3ccc(NC(=O)Nc4c[nH]c5ccccc45)cc32)ccc1F` [Example 102, 1-(4-(5-Fluoro-6-methylpyridin-2-yl)-3,4-dihydro-2H-benzo[b][1,4]thiazin-6-yl)-3-(1H-indol-3-yl)urea] was tested, and the IC50 was < 1 µM.

In the case of `O=C(Nc1ccc2c(c1)N(c1ccccc1)CCS2)Nc1c[nH]c2ccccc12` [Example 103, 1-(1H-indol-3-yl)-3-(4-phenyl-3,4-dihydro-2H-benzo[b][1,4]thiazin-6-yl)urea], the IC50 is reported as < 1 µM.

With `O=C(Nc1ccc2c(c1)SCCN2c1ccccc1)Nc1c[nH]c2ccccc12` [Example 104, 1-(1H-indol-3-yl)-3-(4-phenyl-3,4-dihydro-2H-benzo[b][1,4]thiazin-7-yl)urea] the IC50 was < 1 µM.

In the case of `O=C(Nc1ccc2c(c1)N(c1ccccn1)CCS2)Nc1c[nH]c2ccccc12` [Example 105, 1-(1H-indol-3-yl)-3-(4-(pyridin-2-yl)-3,4-dihydro-2H-benzo[b][1,4]thiazin-6-yl)urea], the IC50 is reported as < 1 µM.

In the case of `O=C(Nc1ccc2c(c1)N(c1cccc(F)n1)CCS2)Nc1c[nH]c2ccccc12` [Example 106, 1-(4-(6-fluoropyridin-2-yl)-3,4-dihydro-2H-benzo[b][1,4]thiazin-6-yl)-3-(1H-indol-3-yl)urea], the IC50 is reported as < 1 µM.

In the case of `C[C@H]1c2ccc(NC(=O)Nc3c[nH]c4ccccc34)cc2N(Cc2ccccc2)C(=O)N1C` [Example 107, (S)-1-(1-Benzyl-3,4-dimethyl-2-oxo-1,2,3,4-tetrahydroquinazolin-7-yl)-3-(1H-indol-3-yl)urea], the IC50 is reported as < 1 µM.

In the case of `C[C@H]1c2ccc(NC(=O)Nc3c[nH]c4ccccc34)cc2N(Cc2c(F)ccc(O)c2Cl)C(=O)N1C` [Example 108, (S)-1-(1-(2-chloro-6-fluoro-3-hydroxybenzyl)-3,4-dimethyl-2-oxo-1,2,3,4-tetrahydroquinazolin-7-yl)-3-(1H-indol-3-yl)urea], the IC50 is reported as 1 to 10 µM.

In the case of `N#Cc1ccc2[nH]cc(NC(=O)Nc3ccc4c(c3)N(Cc3ccccc3)CCS4)c2c1` [Example 109, 1-(4-benzyl-3,4-dihydro-2H-benzo[b][1,4]thiazin-6-yl)-3-(5-cyano-1H-indol-3-yl)urea], the IC50 is reported as < 1 µM.

In the case of `Cc1cc(CN2CCSc3ccc(NC(=O)Nc4c[nH]c5ccc(F)cc45)cc32)on1` [Example 110, 1-(5-fluoro-1H-indol-3-yl)-3-(4-((3-methylisoxazol-5-yl)methyl)-3,4-dihydro-2H-benzo[b][1,4]thiazin-6-yl)urea], the IC50 is reported as < 1 µM.

In the case of `CC1CN(Cc2cc(F)cc(Cl)c2)c2cc(NC(=O)Nc3c[nH]c4ccc(F)cc34)ccc2S1` (stereo not drawn) [Example 111, 1-(4-(3-chloro-5-fluorobenzyl)-2-methyl-3,4-dihydro-2H-benzo[b][1,4]thiazin-6-yl)-3-(5-fluoro-1H-indol-3-yl)urea], the IC50 is reported as < 1 µM.

With `O=C(Nc1ccc2c(c1)N(Cc1ccccc1)C(=O)CS2)Nc1c[nH]c2ccc(Br)cc12` [Example 112, 1-(4-benzyl-3-oxo-3,4-dihydro-2H-benzo[b][1,4]thiazin-6-yl)-3-(5-bromo-1H-indol-3-yl)urea] the IC50 was < 1 µM.
